Experimental data taken from patent publication US10221426B2, “Constitutively active PYR/PYL receptor proteins for improving plant stress tolerance” (The Regents of the University of California, priority 2009, dated 2019).

Target: T1, PYL3-HAB1 (Arabidopsis thaliana, UniProt Q9SSM7)
T1 construct: BD-PYR/PYL fusion proteins were constructed in the same manner as for BD-PYR1 above; expressed in transfected cells; host or cells: yeast (Y190, as for BD-PYR1)
T1 sequence (Q9SSM7 1-209): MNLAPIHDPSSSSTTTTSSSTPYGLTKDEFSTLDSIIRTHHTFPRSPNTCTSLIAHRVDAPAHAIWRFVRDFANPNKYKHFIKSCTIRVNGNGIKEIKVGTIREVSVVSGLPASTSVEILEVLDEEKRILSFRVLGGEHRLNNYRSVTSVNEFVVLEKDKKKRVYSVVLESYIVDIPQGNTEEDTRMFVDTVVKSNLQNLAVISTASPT
T1 sequence (Q9CAJ0 23-511 partner): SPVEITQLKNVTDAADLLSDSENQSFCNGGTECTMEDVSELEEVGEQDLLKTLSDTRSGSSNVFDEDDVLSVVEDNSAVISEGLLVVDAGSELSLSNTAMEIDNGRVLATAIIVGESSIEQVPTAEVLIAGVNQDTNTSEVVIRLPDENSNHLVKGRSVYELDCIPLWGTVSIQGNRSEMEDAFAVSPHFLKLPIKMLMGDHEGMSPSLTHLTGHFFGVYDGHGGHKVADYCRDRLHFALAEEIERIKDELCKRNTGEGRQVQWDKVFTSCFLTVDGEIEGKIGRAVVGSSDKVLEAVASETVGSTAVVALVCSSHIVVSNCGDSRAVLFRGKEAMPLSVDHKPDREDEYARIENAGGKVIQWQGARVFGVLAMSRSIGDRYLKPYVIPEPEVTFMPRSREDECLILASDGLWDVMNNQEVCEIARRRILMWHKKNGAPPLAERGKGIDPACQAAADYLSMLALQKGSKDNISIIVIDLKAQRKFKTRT
Assay: Yeast two-hybrid BD-PYL3 / AD-HAB1 interaction
Assay type: cell-based
Conditions: 10 μM
Description: Given that PYR1 is necessary for pyrabactin action and is a predicted ligand-binding protein, we hypothesized that pyrabactin agonizes ABA signaling by inducing a protein-protein interaction between PYR1 and a downstream effector. To test this, ˜2 million prey cDNA clones were screened against a PYR1 Y2H bait construct on media containing 10 μM pyrabactin. To create the PYR1 Y2H bait construct, the Pyr1 open reading frame was PCR amplified from genomic DNA and cloned to pGem-T easy vector (Promega). After sequence confirmation, the Pyr1 ORF was then cloned in-frame between EcoRI and SalI sites of the pBD-GAL4 Cam vector (Stratagene) and transformed into yeast strain Y190. For the screen, an etiolated seedling cDNA library (J. Kim, K., Harter, A., Theologis, Proc Natl Acad Sci USA 94, 11786 (Oct. 28, 1997)) (ABRC stock CD4-22) was used. The cDNA library was first converted from phage to plasmid DNA, yielding 7.6×10^7 transformants. Plasmid DNA prepared from library was then used to transform Y190 as described in the GAL4 Two-Hybrid system manual (Stratagene). For each screen, 40 μg of prey plasmid was transformed into 1 ml of competent Y190 cell harboring bait construct and then grown on SD agar plates lacking His, Leu, and Trp, but containing 15 mM 3-AT and 10 μM pyrabactin. After 4 days incubation at 30° C., well-grown colonies were rescued and interactions validated using filter lift assay or chloroform-agarose overlay method and X-Gal staining. This identified two pyrabactin-dependent hits which sequencing determined encoded cDNAs for the PP2C HAB1, a close relative of the well-characterized ABA response factor ABI1 (A. Saez et al., The Plant Journal 37, 354 (2004); N. Leonhardt et al., THE PLANT CELL 16, 596 (2004)). Next, Y2H strains expressing an AD-HAB1 fusion protein and a BD-PYR1 fusion protein were grown on plates and tested for interactions in response to various compounds, all at 10 μM except for epi-brassinolide (50 nM) and dimethyl sulfoxide (DMSO) (carrier solvent, 1%). […] Thus, PYR1 interacts with HAB1 in a (+)-ABA dependent fashion.
To see if ABA and pyrabactin responsiveness is unique to PYR1, we tested 11 of the 13 PYL proteins as described above, using Y2H strains expressing an AD-HAB1 fusion protein and a BD-PYR/PYL fusion protein (listed at the left of FIG. 3A). BD-PYR/PYL fusion proteins were constructed in the same manner as for BD-PYR1 above. […] Of these, only Pyr1 is highly transcribed in seeds, which likely explains why mutations in Pyr1 cause the seeds to be insensitive to pyrabactin. […] However the interactions of PYLs 5-12 with the PP2Cs are indicative that the entire protein family is likely to share a similar mechanism of action involving PP2C modulation, as we describe below. Thus, we conclude that entire family modulates ABA responses via PP2C interactions.
The yeast strains expressing PYR/PYL receptors and type 2 C protein phosphatases were also used to screen HPLC-fractionated plant extracts for the presence of endogenous compounds that activate PYL/PYL receptors PYR1, PYL2, PYL3, and/or PYL4. HPLC fractionation of extracts was used to identify compounds different from abscisic acid (the known agonist). […] Purification of the agonist was achieved via multiple rounds of chromatographic separation coupled to yeast two hybrid assays that informed the fractions to move forward at each step of the purification. The structure of the purified agonist was deduced by X-ray crystallography of crystalline purified agonist.

CC1=CC(=O)CC(C)(C)C1(O)/C=C/C(C)=C\C(=O)O (single isomer, unassigned; (+)) [(+)-ABA]
PYL3-HAB1 interaction by X-gal stain: respond

CC1=CC(=O)CC(C)(C)[C@@]1(O)/C=C/C(C)=C\C(=O)O [ABA, Abscisic acid]
PYL3-HAB1 interaction by X-gal stain: interact with HAB1 in an ABA-stimulated manner

O=S(=O)(NCc1ccccn1)c1ccc(Br)c2ccccc12 [pyrabactin]
PYL3-HAB1 interaction by X-gal stain: promotes interactions
